From US4267187A, “Aminopropanol derivatives of 2-(0-hydroxyphenyl)-pyrrole” (BASF Aktiengesellschaft, priority 1978, dated 1981)
Where a name gives a salt, the structure may show the parent alone.

How the values were obtained:
[1] = tested on: isoproterenol-induced tachycardia; assay: β1-sympatholytic action: inhibition of isoproterenol-induced tachycardia in pithed rats; format: in vivo, pithed rats (Sprague-Dawley, Rattus norvegicus); settings: for β1-sympatholytic action, R.A. (relative activity): Propranolol = 1.00, from ED 50%, intravenous; for β1-sympatholytic activity, times greater than that of propranolol: versus propranolol
Experimental: The β-sympatholytic action was tested on rats, in comparison with the known β-sympatholytic agent propanolol (1-(isopropylamino)-1-naphthyloxy-2-propanol.HCl). The following methods were used for this purpose:
1. β1 -sympatholytic action
^1 Inhibition of isoproterenolinduced tachycardia in pithed rats.
Intravenous administration
^2 Dose which inhibits the isoproterenolinduced tachycardia by 50%

[2] = for Therapeutic range, relative: in vivo; for Therapeutic range (LD 50/ED 50%), times greater than that of propranolol: versus propranolol
[3] = tested on: NMRI mice; assay: Acute toxicity in mice, intraperitoneal; settings: deaths within 24 hours, Probit analysis
Experimental: The acute toxicity was determined on groups of 10 female NMRI mice, weight 19-27 g, with intraperitoneal administration.
Intraperitoneal administration

Row | SMILES | β1-sympatholytic action, R.A. (relative activity) ([1]; pithed rats) | ED50 ([1]; Rattus norvegicus, iv, 5 min, read-out: β1-sympatholytic action, ED 50% (dose which inhibits the isoproterenol-induced tachycardia by 50%)) [mg/kg] | β1-sympatholytic activity, times greater than that of propranolol [1] [times] | Therapeutic range, relative [2] | Therapeutic range (LD 50/ED 50%), times greater than that of propranolol [2] [times] | Acute toxicity LD 50 [3] | increase in pulse rate, on average ([1]; isoproterenol 0.1 μg/kg intravenously, pithed rats) [%]
1 | CC(C)NCC(O)COc1cccc2ccccc12 (racemic) [Propranolol, 1-(isopropylamino)-1-naphthyloxy-2-propanol.HCl, reference compound] | 1.00 | 0.0127 | – | – | – | – | –
2 | CC(C)(C)NCC(O)COc1ccccc1-c1ccc[nH]1 (stereo not drawn) [Example 1, 2-[2-(3-tert.-butylamino-2-hydroxypropoxy)-phenyl]-pyrrole fumarate] | 5.59 | – | 5.6 | 6.91 | 7 | 165 | –
3 | CC(C)NCC(O)COc1ccccc1-c1ccc[nH]1 (stereo not drawn) [Example 2, 2-[2-(3-isopropylamino-2-hydroxypropoxy)-phenyl]-pyrrole fumarate hemihydrate] | 3.18 | – | 3.2 | 4.07 | 4 | – | –
4 | CC(C)NCC(O)c1ccc(O)c(O)c1 (stereo not drawn) [Isoproterenol, reference compound] | – | – | – | – | – | – | 45
